Laboratory results reported in US6150414A, “Compositions and methods for treating viral infections” (priority 1992, dated 2000).
“And” between values parts separate entries of the source, which are not always exact repeats. Equal values may be shown once.

What was measured:
Friend Leukemia Virus = assay: In vivo inhibition of Friend Leukemia Virus splenomegaly, intravenous 1-2 hours post infection (Example 10); parameters: species or system mice; conditions: Mus musculus, read-out: EC50 for FV-induced splenomegaly
Experimental: (§1) (3) In vivo inhibition of Friend Leukemia Virus Splenomegaly performed as described in Example 1 above except that the compounds were administered intravenously 1-2 hours post infection.
(§2) The results presented above in Table IX are presented as EC50 concentrations. These are the effective concentrations which inhibit 50% of the viruses in micromolar concentrations.

retroviruses = assay: Comparison over two in vitro and one in vivo biological assays (Example 10); conditions: Example 10, structural comparison
Experimental: In order to investigate the structural features of hypericin which are essential for antiretroviral activity, numerous analogs and precursors of hypericin were examined for activity in two in vitro and one in vivo biological assay.
(§3) (1) Direct inactivation of retroviruses in vitro, performed as in Example 3 above;
as §1

retroviruses (virions) = assay: Direct inactivation of retroviruses (virions) in vitro (Example 10); type: biochemical, Radiation Leukemia Virus; conditions: Table IX
Experimental: (§4) Supernatants (10 ml/tube) from B10.T(6R) cells (Meruelo et al. J. Exp. Med. 147: 470-487, 1978) chronically infected with Radiation Leukemia Virus (RadLV) were obtained by centrifugation of cells in culture at 4° C., 3500 rpm for 15 minutes. The top 2/3 of the supernatant were removed and aliquots were incubated for 30 minutes on ice with the indicated amounts of hypericin or protohypericin. […] Thereafter, supernatants were centrifuged at 100,000×g using a TI70 rotor (Beckman Instruments) for 1 hour at 4° C. The pellet was […] and analyzed for reverse transcriptase activity as follows.
(§5) The reverse transcriptase assay was performed in a volume of 100 microliters containing the following components:
as §3, §2

[1] = target: T1, Radiation Leukemia Virus reverse transcriptase (Radiation murine leukemia virus, UniProt P11227); assay: Radiation Leukemia Virus reverse transcriptase assay, supernatants from infected AQR cells (Examples 4 and 9); type: biochemical; conditions: Table VIII; for CPM: replicate
T1 construct: the reverse transcriptase of Radiation Leukemia Virus; endogenous in cells
Experimental: as §4, §5
The antiviral activity of HHA was tested using AQR (Bach and Meruelo, J. Exp. Med. 160:270-285, 1984) cells chronically infected with Radiation Leukemia Virus in the reverse transcriptase assay as described in Example 3 above.
The assays were conducted using the same procedure as in Example 3 above, using supernatants from infected AQR cells.

Friend Virus = assay: Friend Virus-induced splenomegaly, WIS compounds (Example 8); type: in vivo, mice; conditions: for Average % Inhibition / Average Spleen Weight / Actual Spleen Weight: Table VII; for Actual Spleen Weight: single animal
Experimental: The effects of compositions according to the present invention on the increase in spleen size (splenomegaly) of BALB/c mice (Jackson Labs, Bar Harbor, ME) was examined. In these experiments, the virus (10^6 focus forming units--FFU) was inoculated intravenously and 100 micrograms of the compounds indicated in Table II were administered to the mice intraperitoneally 24 hours later. Each compound was administered once to two mice. The animals were sacrificed ten days later and their spleens weighed.
As used in Table II (and subsequent Tables of this Example l(a) and (b), "average percent inhibition" is calculated as follows: [formula] wherein "ASWNC" designates "average spleen weight of negative control"; "ASWE" designates "average spleen weight of experimental (treated) subject"; and "ASWPC" designates "average spleen weight of positive control". Average spleen weight is the numerical average of spleen weights of each experimental group (in Table II each such group includes two members).
The AAB compounds whose synthesis is described above were assayed for antiviral activity. WIS-2, -3, -4, -5 and -6 were tested to determine their biological effects on Friend Virus-induced splenomegaly using the procedure and technique set forth in Example 1 above. The assay results (three mice per group were tested each at different concentrationss of the active composition except for the PBS-negative control wherein two animals per group were used) are reported in Table VII below.

CC(=O)Oc1cc(C)c2c3c(C)cc(OC(C)=O)c4cc5c(OC(C)=O)cc(OC(C)=O)c6c7c(OC(C)=O)cc(OC(C)=O)c8cc1c2c(c87)c(c43)c56 [WIS-4, desoxohypericinhexaacetate]
EC50 (Friend Leukemia Virus): > 242 µM | loss of antiviral activity relative to parent (retroviruses): loss of activity | EC50 (retroviruses (virions)): 6.9 µM | Average CPM ([1]; 0.05 micrograms): 164,212 CPM | CPM ([1]; 0.05 micrograms): 156,830 CPM and 171,594 CPM | Average CPM ([1]; 0.1 micrograms): 144,512 CPM | CPM ([1]; 0.1 micrograms): 100,504 CPM and 188,520 CPM | Average CPM ([1]; 0.5 micrograms): 208,119 CPM | CPM ([1]; 0.5 micrograms): 196,740 CPM and 219,498 CPM | Average CPM ([1]; 1 microgram): 180,180 CPM | CPM ([1]; 1 microgram): 179,312 CPM and 181,048 CPM | Average CPM ([1]; 2 micrograms): 237,365 CPM | CPM ([1]; 2 micrograms): 236,374 CPM and 238,356 CPM | Average CPM ([1]; 5 micrograms): 164,440 CPM | CPM ([1]; 5 micrograms): 164,780 CPM and 164,100 CPM | Average CPM ([1]; 10 micrograms): 184,852 CPM | CPM ([1]; 10 micrograms): 186,168 CPM and 183,536 CPM | inhibition at 50 ng ([1]; 0.5 h, 0.05 micrograms): 79.9% | inhibition at 0.0001 mg ([1]; 0.5 h, 0.1 micrograms): 82.3% | inhibition at 0.0005 mg ([1]; 0.5 h, 0.5 micrograms): 74.5% | inhibition at 0.001 mg ([1]; 0.5 h, 1 microgram): 77.9% | inhibition at 0.002 mg ([1]; 0.5 h, 2 micrograms): 70.9% | inhibition at 0.005 mg ([1]; 0.5 h, 5 micrograms): 79.9% | inhibition at 0.01 mg ([1]; 0.5 h, 10 micrograms, read-out: Average % Inhibition): 77.4% | Average % Inhibition (Friend Virus; 1 microgram): 14.9% | Average Spleen Weight (Friend Virus; 1 microgram): 0.8480 | Actual Spleen Weight (Friend Virus; 1 microgram): 0.7790 and 0.8852 and 0.8797 | Average % Inhibition (Friend Virus; 10 micrograms): 22.0% | Average Spleen Weight (Friend Virus; 10 micrograms): 0.7921 | Actual Spleen Weight (Friend Virus; 10 micrograms): 0.8118 and 0.8625 and 0.7019 | Average % Inhibition (Friend Virus; 50 micrograms): 28.8% | Average Spleen Weight (Friend Virus; 50 micrograms): 0.7384 | Actual Spleen Weight (Friend Virus; 50 micrograms): 0.7368 and 0.7744 and 0.7041 | Average % Inhibition (Friend Virus; 150 micrograms): 46.1% | Average Spleen Weight (Friend Virus; 150 micrograms): 0.6012 | Actual Spleen Weight (Friend Virus; 150 micrograms): 0.6214 and 0.6663 and 0.5159 | antiviral activity in splenomegaly assay (Friend Virus; Example 8): most active compounds of the group in the splenomegaly assay
